# Results as given in US20010056184A1, “Pipecolinic acid derivatives, method of manufacturing the same and therapeutic agents containing these compounds” (priority 2000, published 2001).
# Legend:
# [1] = target: T1, human fibroblasts derived MMP-1 (type I collagenase) (Homo sapiens, UniProt P03956); experiment: MMP-1 (type I collagenase) inhibitory activities, fluorogenic substrate enzyme assay; format: biochemical; conditions: at 10^−5M; NE means no effect; read-out: MMP-1 inhibition percent
# T1 construct: human fibroblasts derived MMP-1 (Yagai Co. Ltd.) as enzyme; purchased Yagai Co. Ltd; host or cells: human fibroblasts
# T1 sequence (P03956 100-469): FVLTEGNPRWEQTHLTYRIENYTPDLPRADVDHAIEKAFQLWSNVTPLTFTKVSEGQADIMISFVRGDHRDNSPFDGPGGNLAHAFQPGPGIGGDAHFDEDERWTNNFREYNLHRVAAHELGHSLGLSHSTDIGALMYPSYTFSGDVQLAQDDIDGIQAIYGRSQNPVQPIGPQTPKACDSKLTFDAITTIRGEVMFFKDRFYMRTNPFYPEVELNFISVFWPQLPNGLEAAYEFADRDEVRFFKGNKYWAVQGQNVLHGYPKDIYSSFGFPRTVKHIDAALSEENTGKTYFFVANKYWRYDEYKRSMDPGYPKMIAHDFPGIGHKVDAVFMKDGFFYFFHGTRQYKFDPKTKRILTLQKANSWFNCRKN
# Protocol: Examination 1: MMP-1 (type I collagenase) inhibitory activities.
# Inhibitory activities of MMP-1 (type I collagenase) activities were estimated by enzyme assay using human fibroblasts derived MMP-1 (Yagai Co. Ltd.) as enzyme, and MOCAc-Pro-Leu-Gly-Leu-A2pr(Dnp)-Ala-Arg-NH2 (Peptide Research Center, 3163-v) as substrate. Thus, MMP-1 (0.01 U/ml), test compound (10^−10˜10^−5 M), and the substrate (10 μM) were incubated in 50 mM Tris-HCl buffer (pH 7.4) containing 0.2M NaCl, 10 mM CaCl2, 0.02% NaN3, and 0.05% Brij 35 at 37° C. for 4 h. The reaction was stopped by adding of 4 volumes of sodium acetate buffer (pH 4.0), and the degradation of substrate was calculated by measurement with a fluorescence intensity (λ ex 328 nm, λ em 393 nm). Inhibition of degradation of substrate in the presence of compound was determined by comparison with the degradation percent of substrate in the absence of compound, and concentration of 50% inhibition (IC50 value) was calculated.
# MMP-2 (gelatinase A) = target: T2, MMP-2 (gelatinase A) (Homo sapiens, UniProt P08253); experiment: MMP-2 (gelatinase A) inhibitory activities, fluorogenic substrate enzyme assay; format: biochemical; conditions: 42° C., 2 h, substrate 10 μM
# T2 construct: made in house; host or cells: COS-1 cells (secreted into culture medium)
# T2 sequence (P08253 110-660): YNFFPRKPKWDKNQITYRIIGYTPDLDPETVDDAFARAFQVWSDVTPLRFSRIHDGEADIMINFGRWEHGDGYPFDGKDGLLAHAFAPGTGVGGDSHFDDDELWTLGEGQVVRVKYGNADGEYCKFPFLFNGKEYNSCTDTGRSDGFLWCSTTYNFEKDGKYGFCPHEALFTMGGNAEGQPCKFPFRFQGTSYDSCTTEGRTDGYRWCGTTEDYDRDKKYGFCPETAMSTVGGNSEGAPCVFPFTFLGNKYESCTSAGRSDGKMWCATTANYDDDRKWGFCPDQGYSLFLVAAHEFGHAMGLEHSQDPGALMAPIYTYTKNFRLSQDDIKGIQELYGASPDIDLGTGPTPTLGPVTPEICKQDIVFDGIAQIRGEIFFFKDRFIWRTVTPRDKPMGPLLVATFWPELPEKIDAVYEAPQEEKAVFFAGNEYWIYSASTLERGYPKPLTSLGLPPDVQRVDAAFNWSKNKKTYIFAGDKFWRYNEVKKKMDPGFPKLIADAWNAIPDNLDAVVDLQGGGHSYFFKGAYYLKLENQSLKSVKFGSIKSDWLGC
# Protocol: (§1) Examination 2: MMP-2 (gelatinase A) and MMP-9 (gelatinase B) inhibitory activities.
# (§2) Pro MMP-2 was obtained from culture medium separated from human pro-MMP-2 cDNA tranfected COS-1 cells. Pro MMP-2 activated by 1 mM (4-aminophenyl) mercury acetic acid and MMP-9, derived human fibrosarcome (Yagai Co. Ltd.), were used as enzyme respectively. Inhibition of both enzyme activities were estimated by enzyme assay using MOCAc-Pro-Leu-Gly-Leu-A2pr(Dnp)-Ala-Arg-NH2 (Peptide Research Center, 3163-v) as substrate. Thus, MMP-2 or MMP-9 (0.01 U/ml), test compound (several concentrations), and the substrate (10 μM) were incubated in 50 mM Tris - HCl buffer (pH 7.4) containing 0.2M NaCl, 10 mM CaCl2, 0.02% NaN3, and 0.05% Brij 35 at 42° C. for 2 h (MMP-2), 3 h (MMP-9) respectively. Inhibition of degradation of substrate in the presence of compound was determined by comparison with the degradation of substrate in the absence of compound, and concentration of 50% inhibition (IC50 value) was calculated.
# MMP-9 (gelatinase B) = target: T3, MMP-9 (gelatinase B) (Homo sapiens, UniProt P14780); experiment: MMP-9 (gelatinase B) inhibitory activities, fluorogenic substrate enzyme assay; format: biochemical; conditions: for IC50: 42° C., 3 h, substrate 10 μM
# T3 construct: MMP-9, derived human fibrosarcome (Yagai Co. Ltd.), were used as enzyme respectively; purchased Yagai Co. Ltd; host or cells: human fibrosarcoma
# T3 sequence (P14780 94-707): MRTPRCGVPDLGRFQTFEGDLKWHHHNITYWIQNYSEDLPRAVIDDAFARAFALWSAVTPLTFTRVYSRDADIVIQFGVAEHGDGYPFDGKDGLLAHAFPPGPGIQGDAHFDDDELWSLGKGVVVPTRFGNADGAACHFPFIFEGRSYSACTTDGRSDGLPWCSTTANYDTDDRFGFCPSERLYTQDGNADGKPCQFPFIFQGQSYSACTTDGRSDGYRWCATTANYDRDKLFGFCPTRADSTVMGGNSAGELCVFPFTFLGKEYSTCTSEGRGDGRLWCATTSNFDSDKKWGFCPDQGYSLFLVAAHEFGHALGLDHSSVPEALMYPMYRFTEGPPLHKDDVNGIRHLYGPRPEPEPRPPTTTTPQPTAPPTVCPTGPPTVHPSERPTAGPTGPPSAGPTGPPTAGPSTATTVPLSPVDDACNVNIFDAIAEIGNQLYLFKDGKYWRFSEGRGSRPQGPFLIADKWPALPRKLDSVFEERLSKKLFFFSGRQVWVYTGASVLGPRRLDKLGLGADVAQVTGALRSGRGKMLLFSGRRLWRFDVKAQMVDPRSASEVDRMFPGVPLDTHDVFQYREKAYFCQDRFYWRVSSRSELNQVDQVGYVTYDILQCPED
# Protocol: as §1, §2
# Δ MT1-MMP (Δ MMP-14) = target: T4, Δ MT1-MMP (Δ MMP-14) (Homo sapiens, UniProt P50281); experiment: Δ MT1-MMP (Δ MMP-14) inhibitory activities, fluorogenic substrate enzyme assay; format: biochemical; conditions: 37° C., 30 min, substrate 10 μM; read-out: ΔMMP-14 IC50
# T4 construct: ProMT1-MMP cDNA encoded extracellular domain of pro Δ MT1-MMP was tranfected E. coli BL21DE3; made in house; host or cells: E. coli BL21DE3 (inclusion bodies, 8M urea, ion exchange)
# From the text: Examination 3: Δ MT1-MMP (Δ MMP-14) inhibitory activities.
# ProMT1-MMP cDNA encoded extracellular domain of pro Δ MT1-MMP was tranfected E. coli BL21DE3, pro Δ MT1-MMP collected as inclusion body was solved using 8M urea, and it was pulified by ion exchenge column chlomatography. Inhibition of enzyme activities were estimated by enzyme assay using activated Δ MT1-MMP, obtained from activation of pro Δ MT1-MMP by 10 μ/ml tripsine, and MOCAc-Pro-Leu-Gly-Leu-A2pr(Dnp)-Ala-Arg-NH2 (Peptide Research Center, 3163-v) as substrate. Thus, Δ MT1-MMP, test compound (several concentrations), and the substrate (10 μM) were incubated in 50 mM Tris - HCl buffer (pH 7.4) containing 0.2M NaCl, 10 mM CaCl2, 0.02% NaN3, 0.05% Brij 35, and 10 μM leuipeputine at 37° C. for 30 min. The reaction was stopped by adding of 4 volumes of sodium acetate buffer (pH 4.0), and the degradation of substrate was calculated by measurement with a fluorescence intensity (λ ex 328 nm, λ em 393 nm). Inhibition of degradation of substrate in the presence of compound was determined by comparison with the degradation of substrate in the absence of compound, and concentration of 50% inhibition (IC50 value) was calculated.
SMILES,melting point,inhibition at 10 µM [1],IC50 (MMP-2 (gelatinase A)),IC50 (MMP-9 (gelatinase B)),IC50 (Δ MT1-MMP (Δ MMP-14)),"inhibition at 10 µM (MMP-9 (gelatinase B); at 10^−5M, read-out: MMP-9 inhibition percent)"
"COc1ccc(C(=O)N[C@@H]2CCN(S(=O)(=O)c3ccc(-c4ccc(OC)cc4)cc3)[C@@H](C(=O)O)C2)cc1 [Compound 4, (2R, 4R)-2-Carboxy-4-(4-methoxybenzoylamino)-1-[4-(4-methoxyphenyl)benzenesulfonyl)-piperidine]",> 250 °C,,,,,
"CCN[C@@H]1CCN(S(=O)(=O)c2ccc(-c3ccc(OC)cc3)cc2)[C@@H](C(=O)O)C1 [Compound 27, (2R, 4R)-2-Carboxy-4-ethylamino-1-[4-(4-methoxyphenyl)benzenesulfonyl]-piperidine]",> 250 °C,,,,,
"COc1ccc(OCCCCC(=O)N[C@H]2CCN(S(=O)(=O)c3ccc(OC)cc3)[C@H](C(=O)NO)C2)cc1 [Compound 78, (2S, 4S)-2-Hydroxyaminocarbonyl-1-(4-methoxybenzenesulfonyl)-4-[5-(4-methoxyphenoxy)pentanoylamino]-piperidine]",,31.1%,0.5 µM,0.45 µM,0.3 µM,
"COc1ccc(S(=O)(=O)N2CC[C@H](NC(=O)CCC(C)C)C[C@H]2C(=O)NO)cc1 [Compound 79, (2S, 4S)-2-Hydroxyaminocarbonyl-1-(4-methoxybenzenesulfonyl)-4-(4-methylpentanoylamino)-piperidine]",,0%,7.6 µM,,5 µM,23.3%
"COc1ccc(-c2ccc(S(=O)(=O)N3CC[C@H](NC(C)=O)C[C@@H]3C(=O)NO)cc2)cc1 [Compound 82, (2R, 4S)-4-Acetylamino-2-hydroxyaminocarbonyl-1-[4-(4-methoxyphenyl)benzenesulfonyl]-piperidine]",,0%,0.74 µM,0.44 µM,1.3 µM,

# More lines, now with the values ahead:
melting point,inhibition at 10 µM [1],IC50 (MMP-2 (gelatinase A)),IC50 (MMP-9 (gelatinase B)),IC50 (Δ MT1-MMP (Δ MMP-14)),"inhibition at 10 µM (MMP-9 (gelatinase B); at 10^−5M, read-out: MMP-9 inhibition percent)",SMILES
,37.3%,0.22 µM,0.39 µM,0.089 µM,,"COc1ccc(S(=O)(=O)N2CC[C@H](NC(C)=O)C[C@H]2C(=O)NO)cc1 [Compound 81, (2S, 4S)-4-Acetylamino-2-hydroxyaminocarbonyl-1-(4-methoxybenzenesulfonyl)-piperidine]"
,14%,0.028 µM,0.2 µM,7 µM,,"O=C(N[C@@H]1CCN(S(=O)(=O)c2ccc(-c3ccc(Cl)cc3)cc2)[C@@H](C(=O)O)C1)c1cccc[n+]1[O-] [Compound 89, (2R, 4R)-2-Carboxy-1-[4-(4-chlorophenyl)benzenesulfonyl]-4-(pyridyl-N-oxide-2-yl) carbonylamino-piperidine]"
